Experimental data taken from patent publication US20230112279A1, “DETERGENT COMPOSITION” (Conopco, Inc., d/b/a UNILEVER, priority 2020, published 2023).

Tests used:
Lipex 100 L lipase [1] = biological target: T1, Lipex 100 L lipase (Thermomyces lanuginosus, UniProt O59952, N255R/T253R); assay: Inhibition of Lipex 100 L at fixed dose of 500 μM (Example 7, C12 pNP ester); assay type: biochemical; settings: fixed dose of 500 μM; for Lipex 100L lipase activity (inhibitory effect of various saponin derivatives): lipase 10 ng/mL final, 50 mM Tris pH 8.5, 25° C., C12 pNP ester 0.1 mM final, lipase-only control 0.0545; for lipase inhibition: Lipex 100 L 10 ng/mL, C12 pNP ester
T1 construct: purchased Novozymes
T1 sequence (O59952 23-291 T253R/N255R): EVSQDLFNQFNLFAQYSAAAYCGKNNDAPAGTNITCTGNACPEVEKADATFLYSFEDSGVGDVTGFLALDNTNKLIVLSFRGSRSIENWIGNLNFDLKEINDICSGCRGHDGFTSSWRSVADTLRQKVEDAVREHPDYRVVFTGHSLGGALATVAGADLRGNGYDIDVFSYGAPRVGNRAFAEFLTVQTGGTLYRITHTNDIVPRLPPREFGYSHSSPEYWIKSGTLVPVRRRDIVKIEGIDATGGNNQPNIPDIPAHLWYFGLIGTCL
Experimental: (§1) Lipase activity was determined by a colorimetric method using 4-nitrophenyl-valerate (C5) and 4-nitrophenyl-dodecanoate (C12) as substrates. 4-nitrophenyl-dodecanoate (25 mg) or 4-nitrophenyl-valerate (18 mg) were dissolved in 10 mL solvent (methanol) to prepare 8 mM stock solutions. 1 mL of stock solution was added in 7 mL of acidified water (pH 4.5), to give a final concentration of 1 mM (the substrate). In 96-well microtitre plates the following reagents were added: 60 μL dH2O, 80 μL Tris-HCl buffer (pH 8.5, 50 mM), 20 μL of diluted enzyme solution, 20 μL of saponin 10× concentrated stock solution. 20 μL substrate was then added to start the reaction. For zero enzyme controls, enzyme solution was replaced with H2O. Following the addition of substrate, the release of product (4-nitrophenol) was monitored at 405 nm for 15 min at ambient temperature in a Varioskan plate reader.
Various saponins were tested for their ability to inhibit Lipex 100 L lipase (10 ng/mL final). A buffer was used (50 mM Tris pH 8.5) and the experiments were carried out at 25° C. At a fixed dose of 500 μM a number of those tested were effective in lowering the lipase activity. The substrate used for testing as C12 pNP ester (0.1 mM final). These included glycosylated derivatives of oleanolic acid, avenacin, tea tree saponin as well as escin (table 4). Orlistat as a known inhibitor of lipase was also included for comparison (table 4).

Lipex 100 L lipase [2] = biological target: T1, Lipex 100 L lipase; assay: Biochemical determination of lipase activity (4-nitrophenyl ester hydrolysis, 405 nm) with Lipex 100 L; settings: for % increase in Lipase activity in the presence of escin saponin compared to absence of saponin: Lipex 100L; for Lipex 100L activity in the presence of saponins: 10 ng/mL lipase; for activation of Lipex 100 L: saponin at fixed concentration of 10 μM, FIG. 3
Experimental: as §1
(§2) The dose response of various lipases to saponins were tested in a biochemical assay. The concentration of lipase in these experiments was 10 μg/L. This level was chosen to ensure that substrate hydrolysis and resultant increase in absorbance measurements falls within the sensitivity of the spectrophotometer. […] In all cases, the lipase activity increased as the escin concentration reached above a threshold value, which varied according to the enzyme in question, but was in the region 0.01 (Resinase HT) to 0.10 μM (Lipex, 100 L, Lipex Evity and Novozyme 51032).
Activation of a single lipase (Lipex 100 L) by a variety of natural saponins and saponins derived through metabolic engineering were tested using the biochemical assay. The unglycosylated terpenoid, oleanolic acid (OA), was also tested to determine whether lipase activation was a result of the terpenoid moiety or required the terpenoid scaffold to be glycosylated. To compare this directly, the enzymes activation by saponins comprising oleanolic acid glycosylated with 3 or 4 glycoside residues at the C28 position of the triterpenoid (oleanolic acid-28-O-triglycoside (OA-28 x3Gly) and oleanolic acid-28-O-tetraglycoside (OA-28 x4Gly), were compared directly to the activation achieved by oleanolic acid.
Biochemical assays measuring lipase activity were initially used in high-throughput microtitre plate format to enable different saponins at different doses to be screened as potential inhibitors of Lipex 100 L lipase (Novozymes). Effective inhibitors are sought to prevent the lipase hydrolytic activity towards the soil release polymer which is typically observed. […] When using 10 ng/mL lipase ([…]) in this case (this level chosen to ensure that substrate hydrolysis and resultant increase in absorbance measurements falls within the sensitivity of the spectrophotometer) the typical saponin concentration required to inhibit the lipase was around 50-125 μM.

Resinase HT = assay: Biochemical determination of lipase activity with Resinase HT; settings: lipase 10 μg/L
Experimental: as §1, §2

Lipex Evity = assay: Biochemical determination of lipase activity with Lipex Evity; settings: lipase 10 μg/L
Experimental: as §1, §2

Novozym 51032 = assay: Biochemical determination of lipase activity with Novozym 51032; settings: lipase 10 μg/L; for % increase in Lipase activity in the presence of escin saponin compared to absence of saponin: Novozym 51032
Experimental: as §1, §2

CCCCCCCCCCC[C@@H](C[C@@H]1OC(=O)[C@H]1CCCCCC)OC(=O)[C@H](CC(C)C)NC=O [Orlistat, reference compound]
Lipex 100L lipase activity (inhibitory effect of various saponin derivatives) (Lipex 100 L lipase [1]): −0.00032 (±0.0003) abs/min @405 nm

Escin
ability to decrease lipase activity (in words) (Lipex 100 L lipase [2]; Lipex 100 L, Table 2 screen): decrease lipase activity to negligible levels | threshold escin concentration above which lipase activity increased (Lipex 100 L lipase [2]; Lipex 100 L, lipase 10 μg/L): ~0.10 µM | % increase in Lipase activity in the presence of escin saponin compared to absence of saponin (Lipex 100 L lipase [2]; saponin dose 0.01 μM, lipase 10 μg/L): −25% | % increase in Lipase activity in the presence of escin saponin compared to absence of saponin (Lipex 100 L lipase [2]; saponin dose 0.1 μM, lipase 10 μg/L): 25% | % increase in Lipase activity in the presence of escin saponin compared to absence of saponin (Lipex 100 L lipase [2]; saponin dose 0.5 μM, lipase 10 μg/L): 100% | % increase in Lipase activity in the presence of escin saponin compared to absence of saponin (Lipex 100 L lipase [2]; saponin dose 1 μM, lipase 10 μg/L): 450% | % increase in Lipase activity in the presence of escin saponin compared to absence of saponin (Lipex 100 L lipase [2]; saponin dose 2.5 μM, lipase 10 μg/L): 1650% | % increase in Lipase activity in the presence of escin saponin compared to absence of saponin (Lipex 100 L lipase [2]; saponin dose 5 μM, lipase 10 μg/L): 1775% | Lipex 100L activity in the presence of saponins (Lipex 100 L lipase [2]; saponin dose 0.01 μM): 0.257 Δabs/min @405 nm | Lipex 100L activity in the presence of saponins (Lipex 100 L lipase [2]; saponin dose 0.1 μM): 0.241 Δabs/min @405 nm | Lipex 100L activity in the presence of saponins (Lipex 100 L lipase [2]; saponin dose 0.5 μM): 0.247 Δabs/min @405 nm | Lipex 100L activity in the presence of saponins (Lipex 100 L lipase [2]; saponin dose 10 μM): 0.200 Δabs/min @405 nm | Lipex 100L activity in the presence of saponins (Lipex 100 L lipase [2]; saponin dose 25 μM): 0.204 Δabs/min @405 nm | Lipex 100L activity in the presence of saponins (Lipex 100 L lipase [2]; saponin dose 50 μM): 0.152 Δabs/min @405 nm | Lipex 100L activity in the presence of saponins (Lipex 100 L lipase [2]; saponin dose 125 μM): 0.006 Δabs/min @405 nm | Lipex 100L activity in the presence of saponins (Lipex 100 L lipase [2]; saponin dose 250 μM): 0.001 Δabs/min @405 nm | Lipex 100L activity in the presence of saponins (Lipex 100 L lipase [2]; saponin dose 500 μM): 0.001 Δabs/min @405 nm | threshold escin concentration above which lipase activity increased (Resinase HT): ~0.01 µM | % increase in Lipase activity in the presence of escin saponin compared to absence of saponin (Resinase HT; saponin dose 0.01 μM): 70% | % increase in Lipase activity in the presence of escin saponin compared to absence of saponin (Resinase HT; saponin dose 0.1 μM): 60% | % increase in Lipase activity in the presence of escin saponin compared to absence of saponin (Resinase HT; saponin dose 0.5 μM): 170% | % increase in Lipase activity in the presence of escin saponin compared to absence of saponin (Resinase HT; saponin dose 1 μM): 210% | % increase in Lipase activity in the presence of escin saponin compared to absence of saponin (Resinase HT; saponin dose 2.5 μM): 140% | % increase in Lipase activity in the presence of escin saponin compared to absence of saponin (Resinase HT; saponin dose 5 μM): 200% | Lipex 100L lipase activity (inhibitory effect of various saponin derivatives) (Lipex 100 L lipase [1]): 0.0039 (±0.0027) abs/min @405 nm | threshold escin concentration above which lipase activity increased (Lipex Evity): ~0.10 µM | % increase in Lipase activity in the presence of escin saponin compared to absence of saponin (Lipex Evity; saponin dose 0.01 μM): 0% | % increase in Lipase activity in the presence of escin saponin compared to absence of saponin (Lipex Evity; saponin dose 0.1 μM): 20% | % increase in Lipase activity in the presence of escin saponin compared to absence of saponin (Lipex Evity; saponin dose 0.5 μM): 120% | % increase in Lipase activity in the presence of escin saponin compared to absence of saponin (Lipex Evity; saponin dose 1 μM): 200% | % increase in Lipase activity in the presence of escin saponin compared to absence of saponin (Lipex Evity; saponin dose 2.5 μM): 240% | % increase in Lipase activity in the presence of escin saponin compared to absence of saponin (Lipex Evity; saponin dose 5 μM): 260% | % increase in Lipase activity in the presence of escin saponin compared to absence of saponin (Novozym 51032; saponin dose 0.01 μM): 0% | % increase in Lipase activity in the presence of escin saponin compared to absence of saponin (Novozym 51032; saponin dose 0.1 μM): 50% | % increase in Lipase activity in the presence of escin saponin compared to absence of saponin (Novozym 51032; saponin dose 0.5 μM): 50% | % increase in Lipase activity in the presence of escin saponin compared to absence of saponin (Novozym 51032; saponin dose 1 μM): 50% | % increase in Lipase activity in the presence of escin saponin compared to absence of saponin (Novozym 51032; saponin dose 2.5 μM): 150% | % increase in Lipase activity in the presence of escin saponin compared to absence of saponin (Novozym 51032; saponin dose 5 μM): 250% | threshold escin concentration above which lipase activity increased (Novozym 51032; Novozyme 51032): ~0.10 µM

oleanolic acid-28-O-triglycoside [OA-28 x3Gly]
activation of Lipex 100 L (Lipex 100 L lipase [2]): greater than 20 fold | lipase inhibition (Lipex 100 L lipase [1]): complete inhibition | Lipex 100L lipase activity (inhibitory effect of various saponin derivatives) (Lipex 100 L lipase [1]): −0.0011 (±0.0005) abs/min @405 nm

CC1(C)CC[C@]2(C(=O)O)CC[C@]3(C)C(=CC[C@@H]4[C@@]5(C)CC[C@H](O)C(C)(C)[C@@H]5CC[C@]43C)[C@@H]2C1 [Oleanolic acid, reference compound]
activation of Lipex 100 L (Lipex 100 L lipase [2]): small activation | Lipex 100L lipase activity (inhibitory effect of various saponin derivatives) (Lipex 100 L lipase [1]): 0.0842 (±0.0084) abs/min @405 nm

Avenacin
lipase inhibition (Lipex 100 L lipase [1]): complete inhibition | Lipex 100L lipase activity (inhibitory effect of various saponin derivatives) (Lipex 100 L lipase [1]): 0.0013 (±0.0006) abs/min @405 nm

oleanolic acid-28-O-tetraglycoside [OA-28 x4Gly]
lipase inhibition (Lipex 100 L lipase [1]): 80% | Lipex 100L lipase activity (inhibitory effect of various saponin derivatives) (Lipex 100 L lipase [1]): 0.0109 (±0.0006) abs/min @405 nm

CC1(C)[C@@H](O[C@H]2O[C@H](C(=O)O)[C@@H](O)[C@H](O)[C@H]2O[C@@H]2O[C@H](C(=O)O)[C@@H](O)[C@H](O)[C@H]2O)CC[C@]2(C)[C@H]3C(=O)C=C4[C@@H]5C[C@@](C)(C(=O)O)CC[C@]5(C)CC[C@@]4(C)[C@]3(C)CC[C@@H]12 [Glycyrrhizic acid]
Lipex 100L activity in the presence of saponins (Lipex 100 L lipase [2]; saponin dose 0.01 μM): 0.244 Δabs/min @405 nm | Lipex 100L activity in the presence of saponins (Lipex 100 L lipase [2]; saponin dose 0.1 μM): 0.252 Δabs/min @405 nm | Lipex 100L activity in the presence of saponins (Lipex 100 L lipase [2]; saponin dose 0.5 μM): 0.238 Δabs/min @405 nm | Lipex 100L activity in the presence of saponins (Lipex 100 L lipase [2]; saponin dose 10 μM): 0.221 Δabs/min @405 nm | Lipex 100L activity in the presence of saponins (Lipex 100 L lipase [2]; saponin dose 25 μM): 0.171 Δabs/min @405 nm | Lipex 100L activity in the presence of saponins (Lipex 100 L lipase [2]; saponin dose 50 μM): 0.135 Δabs/min @405 nm | Lipex 100L activity in the presence of saponins (Lipex 100 L lipase [2]; saponin dose 125 μM): 0.116 Δabs/min @405 nm | Lipex 100L activity in the presence of saponins (Lipex 100 L lipase [2]; saponin dose 250 μM): 0.083 Δabs/min @405 nm | Lipex 100L activity in the presence of saponins (Lipex 100 L lipase [2]; saponin dose 500 μM): 0.068 Δabs/min @405 nm
